The target of this experiment is CREB-binding protein (Homo sapiens, UniProt Q92793). Kind of experiment: CBP (Bromodomain) AlphaScreen Assay. As to the method: Assays were performed with minimal modifications from the manufacturer's protocol (PerkinElmer , USA). All reagents were diluted in 50 mM 4-(2-hydroxyethyl)-1-piperazineethanesulfonic acid (HEPES), 150 mM NaCl, 0.1% w/v bovine serum albumin (BSA), 0.01% w/v Tween 20, pH 7.5 and allowed to equilibrate to room temperature prior to addition to plates. After addition of AlphaScreen acceptor beads to master solutions, all subsequent steps were performed under low light conditions. A 2× solution of components with final concentrations of CBP bromodomain at 40 nM, Ni-coated Acceptor Bead at 10 μg/ml, and 7.2 nM biotinylated-Int-2 was added in 10 μL to 384-well plates (AlphaPlate-384, PerkinElmer , USA). Plates were spun down at 150×g, 100 nL of compound in dimethyl sulfoxide (DMSO) from stock plates were added by pin transfer using a Janus Workstation (PerkinElmer , USA). The streptavidin-coated donor beads ([…] final) were added as with previous the solution in a 2×10 μL volume. Following this addition, plates were sealed with foil to prevent light exposure and evaporation. The plates were spun down again at 150×g. Plates were incubated at room temperature for 1 hour and then read on a 2104 EnVision Multilabel Plate Reader (PerkinElmer , USA) using the manufacturer's protocol.
For orientation: Alpha assays give light when donor and acceptor beads are brought close together.

CREB-binding protein, sequence (Q92793 whole entry): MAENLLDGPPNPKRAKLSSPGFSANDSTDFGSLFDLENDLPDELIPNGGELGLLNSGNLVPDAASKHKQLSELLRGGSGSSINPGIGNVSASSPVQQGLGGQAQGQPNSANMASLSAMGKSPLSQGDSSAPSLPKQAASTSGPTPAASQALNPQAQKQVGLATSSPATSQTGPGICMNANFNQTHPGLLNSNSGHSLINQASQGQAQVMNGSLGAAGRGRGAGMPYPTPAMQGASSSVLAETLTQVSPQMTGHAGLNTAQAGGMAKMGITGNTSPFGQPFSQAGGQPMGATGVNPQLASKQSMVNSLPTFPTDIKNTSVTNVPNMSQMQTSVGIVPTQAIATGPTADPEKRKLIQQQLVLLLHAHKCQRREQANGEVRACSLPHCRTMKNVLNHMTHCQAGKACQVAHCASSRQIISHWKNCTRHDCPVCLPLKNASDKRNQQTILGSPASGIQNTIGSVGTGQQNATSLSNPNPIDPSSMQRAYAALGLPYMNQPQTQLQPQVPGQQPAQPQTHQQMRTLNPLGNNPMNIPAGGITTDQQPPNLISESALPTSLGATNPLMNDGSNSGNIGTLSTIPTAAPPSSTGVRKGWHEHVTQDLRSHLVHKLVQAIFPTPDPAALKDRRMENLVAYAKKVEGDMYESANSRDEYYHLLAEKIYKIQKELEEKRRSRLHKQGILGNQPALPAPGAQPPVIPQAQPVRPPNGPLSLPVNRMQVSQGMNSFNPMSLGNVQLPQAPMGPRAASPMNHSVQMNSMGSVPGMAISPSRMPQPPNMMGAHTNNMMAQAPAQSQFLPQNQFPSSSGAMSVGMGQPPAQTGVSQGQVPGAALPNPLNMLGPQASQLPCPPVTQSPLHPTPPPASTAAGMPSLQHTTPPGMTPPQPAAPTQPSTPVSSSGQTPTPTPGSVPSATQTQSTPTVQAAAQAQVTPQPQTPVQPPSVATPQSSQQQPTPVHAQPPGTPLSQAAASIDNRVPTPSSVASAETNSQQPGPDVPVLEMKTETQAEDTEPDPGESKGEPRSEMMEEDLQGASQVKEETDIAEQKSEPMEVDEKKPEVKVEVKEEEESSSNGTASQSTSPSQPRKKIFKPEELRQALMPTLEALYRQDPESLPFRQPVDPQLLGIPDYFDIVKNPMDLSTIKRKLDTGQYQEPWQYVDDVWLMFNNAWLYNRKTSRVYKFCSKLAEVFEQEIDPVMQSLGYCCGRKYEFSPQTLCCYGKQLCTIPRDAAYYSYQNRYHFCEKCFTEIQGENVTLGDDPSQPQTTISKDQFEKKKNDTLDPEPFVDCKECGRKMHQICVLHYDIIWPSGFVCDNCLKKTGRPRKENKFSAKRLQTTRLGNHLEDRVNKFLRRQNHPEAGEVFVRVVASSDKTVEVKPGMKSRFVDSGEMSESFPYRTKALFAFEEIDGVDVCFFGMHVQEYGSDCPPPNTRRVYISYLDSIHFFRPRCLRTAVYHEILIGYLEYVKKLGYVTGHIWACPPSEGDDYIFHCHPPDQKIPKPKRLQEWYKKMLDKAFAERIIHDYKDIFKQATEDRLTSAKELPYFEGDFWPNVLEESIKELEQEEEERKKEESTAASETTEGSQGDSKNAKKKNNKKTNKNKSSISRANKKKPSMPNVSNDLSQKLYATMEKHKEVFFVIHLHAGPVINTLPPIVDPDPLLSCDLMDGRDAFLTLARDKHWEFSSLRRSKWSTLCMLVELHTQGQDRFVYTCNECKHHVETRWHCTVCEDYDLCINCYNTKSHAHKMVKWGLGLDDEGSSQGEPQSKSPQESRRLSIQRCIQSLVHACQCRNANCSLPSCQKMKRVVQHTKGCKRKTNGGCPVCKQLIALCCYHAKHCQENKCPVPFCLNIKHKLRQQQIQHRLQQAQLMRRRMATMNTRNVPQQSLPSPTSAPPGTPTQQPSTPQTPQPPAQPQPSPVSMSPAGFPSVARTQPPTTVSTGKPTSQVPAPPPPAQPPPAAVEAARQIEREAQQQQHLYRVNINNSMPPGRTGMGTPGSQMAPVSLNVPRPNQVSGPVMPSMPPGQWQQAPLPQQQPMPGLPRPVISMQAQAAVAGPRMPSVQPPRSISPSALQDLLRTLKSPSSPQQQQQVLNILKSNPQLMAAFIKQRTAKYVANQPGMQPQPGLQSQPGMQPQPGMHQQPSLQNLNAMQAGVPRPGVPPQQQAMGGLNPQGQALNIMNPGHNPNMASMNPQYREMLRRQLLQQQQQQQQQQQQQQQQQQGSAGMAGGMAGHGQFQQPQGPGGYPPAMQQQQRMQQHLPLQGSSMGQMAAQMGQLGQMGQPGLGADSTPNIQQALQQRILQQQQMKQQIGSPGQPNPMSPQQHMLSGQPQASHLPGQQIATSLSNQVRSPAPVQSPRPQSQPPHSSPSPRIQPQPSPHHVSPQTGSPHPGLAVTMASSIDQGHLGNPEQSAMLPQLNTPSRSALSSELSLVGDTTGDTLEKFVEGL

Take `Cc1noc(C)c1-c1ccc2nc(-c3ccc(N4CCN(C(=O)CCCCCCCCCCCNc5ccc6c(c5)C(=O)N(C5CCC(=O)NC5=O)C6=O)CC4)cc3)c(NC3CCCCC3)n2c1` (stereo unspecified) [US12496348, Compound 1]: the IC50 (usually the concentration at which inhibition is half-maximal) was found to be 18.9 µM.

Values taken from BindingDB's records for patent US12496348 (Dana-Farber Cancer Institute, 2025).
